# From patent US20110130370A1, “Pharmaceutical composition comprising a strontium salt, vitamin D and A cyclodextrin” (LES LABORATORIES SERVIER, priority 2009, published 2011)
# Experiment: Stability of the vitamin D3+RAMEB complex at 40° C./75% RH in sealed amber glass pill containers
# Type: physicochemical
# Method: The stability of the vitamin D3+RAMEB complex of Example 1B at 40° C./75% RH was tested and compare to the stability of: 1) pure vitamin D3, 2) a concentrate of vitamin D3 in powder form (DSM).
# The study is carried out in pill containers of sealed amber glass (stopper of type for antibiotics, chlorobutyl, grey, D13—natural aluminium crimp-on cap D20 mm, tear-off lid).
smiles,measurement,setting,value
"C=C1CC[C@H](O)C/C1=C/C=C1\CCC[C@]2(C)[C@@H]([C@H](C)CCCC(C)C)CC[C@@H]12 [pure vitamin D3, cholecalciferol]",% vitamin D3,t0,98.0%
same,% vitamin D3,"t0 + 3 weeks, 40° C./75% RH",20.3%
same,% vitamin D3,"t0 + 6 weeks, 40° C./75% RH",23.1%
